The supplement of paper PMC10307832

Tests used:
Test in all cases: relative viability (nuclei count vs DMSO), 5 days (fraction); higher = more cells survive
[1] = compound: CN(C)C/C=C/C(=O)Nc1cc2c(Nc3ccc(F)c(Cl)c3)ncnc2cc1O[C@H]1CCOC1 [Afatinib] + NC(=O)Nc1cc(-c2cccc(F)c2)sc1C(=O)N[C@H]1CCCNC1 [AZD7762] (partner 0.2 µM)
Procedure, shortened: (§1)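 Relative viability equals treated-well nuclei counts divided by vehicle-well nuclei counts. Counts came from 4× images of lung cancer cell lines grown in 1536-well plates for 5 days after pin-tool dosing on the day after seeding. Dosing used one drug alone or a fixed anchor-drug dose plus five library-drug doses (not always all listed) in √10 steps, and values are medians of duplicate plates.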

[2] = compound: CN(C)C/C=C/C(=O)Nc1cc2c(Nc3ccc(F)c(Cl)c3)ncnc2cc1O[C@H]1CCOC1 [Afatinib] + Nc1ncn([C@H]2C[C@H](O)[C@@H](CO)O2)c(=O)n1 [Decitabine] (partner 2 µM)
Procedure, shortened: as §1

[3] = compound: CN(C)C/C=C/C(=O)Nc1cc2c(Nc3ccc(F)c(Cl)c3)ncnc2cc1O[C@H]1CCOC1 [Afatinib] + O=C(c1cc(Cc2n[nH]c(=O)c3ccccc23)ccc1F)N1CCN(C(=O)C2CC2)CC1 [Olaparib] (partner 8 µM)
Procedure, shortened: as §1

[4] = compound: CN(C)C/C=C/C(=O)Nc1cc2c(Nc3ccc(F)c(Cl)c3)ncnc2cc1O[C@H]1CCOC1 [Afatinib] + CS(=O)(=O)CCNCc1ccc(-c2ccc3ncnc(Nc4ccc(OCc5cccc(F)c5)c(Cl)c4)c3c2)o1 [Lapatinib] (partner 2 µM)
Procedure, shortened: as §1

Cell Line | relative viability ([1]; first compound 0.005 µM) | relative viability ([1]; first compound 0.01581 µM) | relative viability ([1]; first compound 0.05 µM) | relative viability ([1]; first compound 0.1581 µM) | relative viability ([1]; first compound 0.5 µM) | relative viability ([2]; first compound 0.005 µM) | relative viability ([2]; first compound 0.01581 µM) | relative viability ([2]; first compound 0.05 µM) | relative viability ([2]; first compound 0.1581 µM) | relative viability ([2]; first compound 0.5 µM) | relative viability ([3]; first compound 0.005 µM) | relative viability ([3]; first compound 0.01581 µM) | relative viability ([3]; first compound 0.05 µM) | relative viability ([3]; first compound 0.1581 µM) | relative viability ([3]; first compound 0.5 µM) | relative viability ([4]; first compound 0.005 µM) | relative viability ([4]; first compound 0.01581 µM) | relative viability ([4]; first compound 0.05 µM) | relative viability ([4]; first compound 0.1581 µM) | relative viability ([4]; first compound 0.5 µM)
NCI-H2405 | 0.763 | 0.759 | 0.839 | 0.666 | 0.562 | 0.716 | 0.764 | 0.703 | 0.642 | 0.656 | 0.885 | 0.934 | 0.864 | 0.874 | 0.852 | 1.11 | 1.09 | 1.33 | 1.04 | 1.07
NCI-H3122 | 1.07 | 0.985 | 0.991 | 0.883 | 1.05 | 0.38 | 0.439 | 0.424 | 0.433 | 0.418 | 0.619 | 0.628 | 0.57 | 0.632 | 0.68 | 1.03 | 1.02 | 1.05 | 0.992 | 1.04
PC-3 [JPC-3] | 0.52 | 0.413 | 0.307 | 0.353 | 0.422 | 0.564 | 0.52 | 0.553 | 0.449 | 0.492 | 0.608 | 0.453 | 0.472 | 0.456 | 0.476 | 0.445 | 0.425 | 0.428 | 0.472 | 0.416
PC-14 | 0.235 | 0.157 | 0.139 | 0.166 | 0.14 | 0.14 | 0.17 | 0.137 | 0.171 | 0.218 | 0.193 | 0.19 | 0.139 | 0.12 | 0.134 | 0.295 | 0.222 | 0.258 | 0.301 | 0.288
RERF-LC-KJ | 1.01 | 0.827 | 0.865 | 0.84 | 0.778 | 0.646 | 0.613 | 0.673 | 0.501 | 0.635 | 0.851 | 0.86 | 0.906 | 0.865 | 0.828 | 0.83 | 0.919 | 0.849 | 0.834 | 0.83
